From patent US12180226B2, “Spirotricycle RIPK1 inhibitors and methods of uses thereof” (Merck Sharp & Dohme LLC, priority 2021, dated 2024)

target: RIPK1 (recombinant GST-RIPK1 kinase domain, residues 1-327) (Homo sapiens (Human), UniProt Q13546); test: RIPK1-ADP-Glo Enzymatic Assay; assay type: biochemical; conditions: ADP-Glo; 25 nM GST-RIPK1, 300 μM ATP; assay lower limit ~25 nM; read-out: RIPK1 V0 Ec50
Summary of the method: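 Luminescent ADP-Glo readout of ATP-to-ADP conversion. Conditions: 25 nM enzyme, 300 μM ATP, 3 μM dephospho-MBP, pH 7.3 HEPES buffer with 20 mM MgCl2; 30 min compound pre-incubation, 150 min reaction. EC50 via four-parameter sigmoidal regression; assay floor ~25 nM.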

Sequence of RIPK1 (recombinant GST-RIPK1 kinase domain, residues 1-327) (Q13546 1-327): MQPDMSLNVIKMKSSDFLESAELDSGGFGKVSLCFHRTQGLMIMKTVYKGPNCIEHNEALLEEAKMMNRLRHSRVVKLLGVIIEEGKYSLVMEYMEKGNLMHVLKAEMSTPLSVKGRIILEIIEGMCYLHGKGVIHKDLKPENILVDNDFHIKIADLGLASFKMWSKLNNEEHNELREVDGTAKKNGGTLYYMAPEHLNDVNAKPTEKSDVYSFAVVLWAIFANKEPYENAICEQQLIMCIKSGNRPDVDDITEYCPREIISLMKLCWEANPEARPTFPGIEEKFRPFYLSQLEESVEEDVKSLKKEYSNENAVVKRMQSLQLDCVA

| SMILES | EC50 [nM] |
| --- | --- |
| CC(=O)c1cnc(N2CCC3(CC2)O[C@@H]2CC[C@@H](c4ccccc4)N2C3=O)cc1Cl [Example 4.186, (5′S,7a′R)-1-(5-acetyl-4-chloropyridin-2-yl)-5′-phenyltetrahydro-3′H-spiro[piperidine-4,2′-pyrrolo[2,1-b] [1,3]oxazol]-3′-one] | < 25 |
| Cc1ncc([C@@H]2CC[C@H]3OC4(CCN(c5ccnc6c(F)cnn56)CC4F)C(=O)N32)cc1F (stereo partly drawn) [Example 4.131, (5′S,7a′R)-3-fluoro-5′-(5-fluoro-6-methylpyridin-3-yl)-1-(3-fluoropyrazolo[1,5-a]pyrimidin-7-yl)tetrahydro-3′H-spiro[piperidine-4,2′-pyrrolo[2,1-b] [1,3]oxazol]-3′-one] | 30.6 |
| Cc1nccn1-c1cc(N2CCC3(CC2)O[C@@H]2CC[C@@H](c4ccccc4)N2C3=O)ncn1 [Example 4.175, (5′S,7a′R)-1-[6-(2-methyl-1H-imidazol-1-yl)pyrimidin-4-yl]-5′-phenyltetrahydro-3′H-spiro[piperidine-4,2′-pyrrolo[2,1-b] [1,3]oxazol]-3′-one] | < 25 |
| O=C1N2[C@H](CC[C@@H]2c2ccccc2)SC12CCN(c1ccnc3ccnn13)CC2 [Example 4.115, (5′R,7a′S)-5′-phenyl-1-(pyrazolo[1,5-a]pyrimidin-7-yl)tetrahydro-3′H-spiro[piperidine-4,2′-pyrrolo[2,1-b]thiazol]-3′-one] | 180 |
| O=C1N2[C@@H](CC[C@H]2c2ccccc2)OC12CCN(c1ncnc3c1COC3)CC2 [Example 4.222, (5′S,7a′R)-1-(5,7-dihydrofuro[3,4-d]pyrimidin-4-yl)-5′-phenyltetrahydro-3′H-spiro[piperidine-4,2′-pyrrolo[2,1-b] [1,3]oxazol]-3′-one] | 57.3 |
| O=C1N2[C@@H](CC[C@H]2c2ccccc2)OC12CCN(c1ncccc1Cl)CC2 [Example 4.256, (5′S,7a′R)-1-(3-chloropyridin-2-yl)-5′-phenyltetrahydro-3′H-spiro[piperidine-4,2′-pyrrolo[2,1-b] [1,3]oxazol]-3′-one] | 25 |
| O=C(c1ccccc1)N1C2CCC1CC1(C2)O[C@@H]2CC[C@@H](c3cc(F)cc(F)c3)N2C1=O (stereo partly drawn) [Example 6.134, (5′S,7a′R)-8-(benzene-carbonyl)-5′-(3,5-difluorophenyl)tetra-hydro-3′H-spiro[8-azabicyclo[3.2.1]-octane-3,2′-pyrrolo-[2,1-b][1,3]oxazol]-3′-one] | 92.4 |
| Cc1ncc([C@@H]2CC[C@H]3OC4(CCN(c5ccnc6c(F)cnn56)CC4F)C(=O)N32)cc1F (stereo partly drawn) [Example 4.130, (5′S,7a′R)-3-fluoro-5′-(5-fluoro-6-methylpyridin-3-yl)-1-(3-fluoropyrazolo[1,5-a]pyrimidin-7-yl)tetrahydro-3′H-spiro[piperidine-4,2′-pyrrolo[2,1-b] [1,3]oxazol]-3′-one] | < 25 |
| COC(=O)N1CCC2(CC1)O[C@@H]1CC[C@@H](c3cc(F)cc(F)c3)N1C2=O [Example 1.2, methyl (5′S,7a′R)-5′-(3,5-difluorophenyl)-3′-oxotetrahydro-1H,3′H-spiro[piperidine-4,2′-pyrrolo[2,1-b] [1,3]oxazole]-1-carboxylate] | 115 |
| O=C1N2[C@@H](CC[C@H]2c2ccccc2)OC12CCN(c1ncnc3c1CCO3)CC2 [Example 4.217, (5′S,7a′R)-1-(5,6-dihydrofuro[2,3-d]pyrimidin-4-yl)-5′-phenyltetrahydro-3′H-spiro[piperidine-4,2′-pyrrolo[2,1-b] [1,3]oxazol]-3′-one] | 25.8 |
| O=C1N2[C@@H](CC[C@H]2c2ccccc2)OC12CCN(c1ncnc3c(I)cnn13)CC2 [Example 4.219, (5′S,7a′R)-1-(8-iodopyrazolo[1,5-a] [1,3,5]triazin-4-yl)-5′-phenyltetrahydro-3′H-spiro[piperidine-4,2′-pyrrolo[2,1-b] [1,3]oxazol]-3′-one] | < 25 |
| Cc1cc2c(nc1N1CCC3(CC1)O[C@@H]1CC[C@@H](c4ccccc4)N1C3=O)CNC2=O [Example 4.187, (5′S,7a′R)-1-(3-methyl-5-oxo-6,7-dihydro-5H-pyrrolo[3,4-b]pyridin-2-yl)-5′-phenyltetrahydro-3′H-spiro[piperidine-4,2′-pyrrolo[2,1-b] [1,3]oxazol]-3′-one] | 357 |
| N#Cc1ccnc(N2CCC3(CC2)O[C@@H]2CC[C@@H](c4cc(F)cc(F)c4)N2C3=O)n1 [Example 4.12, 2-[(5′S,7a′R)-5′-(3,5-difluorophenyl)-3′-oxotetrahydro-1H,3′H-spiro[piperidine-4,2′-pyrrolo[2,1-b] [1,3]oxazol]-1-yl]pyrimidine-4-carbonitrile] | < 25 |
| O=C1N2[C@@H](CC[C@H]2c2cc(F)cc(F)c2)OC12CC1CCC(C2)N1c1ccnc2c(F)cnn12 (stereo partly drawn) [Example 4.254, (5′S,7a′R)-5′-(3,5-difluorophenyl)-8-(3-fluoropyrazolo[1,5-a]pyrimidin-7-yl)tetrahydro-3′H-spiro[8-azabicyclo[3.2.1]octane-3,2′-pyrrolo[2,1-b] [1,3]oxazol]-3′-one] | 126 |
| CC1CC2(CCN1c1ccnc3c(F)cnn13)O[C@@H]1CC[C@@H](c3ccccc3)N1C2=O (stereo partly drawn) [Example 4.224, (4R,5′S,7a′R)-1-(3-fluoropyrazolo[1,5-a]pyrimidin-7-yl)-2-methyl-5′-phenyltetrahydro-3′H-spiro[piperidine-4,2′-pyrrolo[2,1-b] [1,3]oxazol]-3′-one] | < 25 |
| N#Cc1ccc(C(=O)N2CCC3(CC2)O[C@@H]2CC[C@@H](c4cc(F)cc(F)c4)N2C3=O)c(Cl)c1 [Example 5.22, 3-chloro-4-((5′S,7a′R)-5′-(3,5-difluorophenyl)-3′-oxotetrahydro-3′H-spiro [piperidine-4,2′-pyrrolo-[2,1-b]oxazole]-1-carbon-yl)benzonitrile] | 392 |
| CC(C)(O)C#Cc1ccc(C(=O)N2CCC3(CC2)O[C@@H]2CC[C@@H](c4cc(F)cc(F)c4)N2C3=O)cc1 [Example 5.26, (5′S,7a′R)-5′-(3,5-difluoro-phenyl)-1-(4-(3-hydroxy-3-methylbut-1-yn-1-yl)-benzoyl)tetrahydro-3′H-spiro[piperidine-4,2′-pyrrolo[2,1-b]oxazol]-3′-one] | 737 |

Second part, the compound after the results:

| EC50 [nM] | SMILES |
| --- | --- |
| 208 | O=C1CCc2c1cccc2C(=O)N1CCC2(CC1)O[C@@H]1CC[C@@H](c3cc(F)cc(F)c3)N1C2=O [Example 5.28, (5′S,7a′R)-5′-(3,5-difluoro-phenyl)-1-(1-oxo-2,3-dihydro-1H-indene-4-carbonyl)tetrahydro-3′H-spiro[piperidine-4,2′-pyrrolo[2,1-b]oxazol]-3′-one] |
| 42 | O=C1N2[C@@H](CC[C@H]2c2ccccc2)OC12CCN(c1nccc(-c3ccccn3)n1)CC2 [Example 11.11, (5′S,7a′R)-5′-phenyl-1-[4-(pyridin-2-yl)pyrimidin-2-yl]tetrahydro-3′H-spiro[piperidine-4,2′-pyrrolo[2,1-b][1,3]oxazol]-3′-one] |
| 36.9 | O=C(c1cnccn1)N1CCC2(CC1)O[C@@H]1CC[C@@H](c3cc(F)cc(F)c3)N1C2=O [Example 6.85, (5′S,7a′R)-5′-(3,5-difluorophenyl)-1-(pyrazine-2-carbon-yl)tetrahydro-3′H-spiro[piperidine-4,2′-pyrrolo[2,1-b][1,3]-oxazol]-3′-one] |
| 989 | CC(C)c1oncc1C(=O)N1CCC2(CC1)O[C@@H]1CC[C@@H](c3cc(F)cc(F)c3)N1C2=O [Example 6.49, (5′S,7a′R)-5′-(3,5-difluorophenyl)-1-[5-(propan-2-yl)-1,2-oxazole-4-carbonyl]-tetrahydro-3′H-spiro [piperidine-4,2′-pyrrolo[2,1-b][1,3]-oxazol]-3′-one] |
| < 25 | O=C1N2[C@@H](CC[C@H]2c2cc(F)cc(F)c2)OC12CCN(c1ccc(Br)c3ncnn13)CC2 [Example 13.7, (5′S,7a′R)-1-(8-bromo-[1,2,4]triazolo[1,5-a]pyridin-5-yl)-5′-(3,5-difluorophenyl)tetrahydro-3′H-spiro[piperidine-4,2′-pyrrolo[2,1-b]oxazol]-3′-one] |
| < 25 | O=C(c1nc(N2CCC3(CC2)O[C@@H]2CC[C@@H](c4cc(F)cc(F)c4)N2C3=O)ncc1F)N1CC(C(F)F)C1 [Example 7.8, (5′S,7a′R)-1-{4-[3-(difluoromethyl)azetidine-1-carbonyl]-5-fluoropyrimidin-2-yl}-5′-(3,5-difluorophenyl)tetrahydro-3′H-spiro[piperidine-4,2′-pyrrolo[2,1-b][1,3]oxazol]-3′-one] |
| 280 | O=C(c1cccc2nccnc12)N1CCC2(CC1)O[C@@H]1CC[C@@H](c3cc(F)cc(F)c3)N1C2=O [Example 6.55, (5′S,7a′R)-5′-(3,5-difluorophenyl)-1-(quinoxaline-5-carbon-yl)tetrahydro-3′H-spiro[piperidine-4,2′-pyrrolo[2,1-b][1,3]-oxazol]-3′-one] |
| 42.7 | Cc1ocnc1C(=O)N1CCC2(CC1)O[C@@H]1CC[C@@H](c3cccc(F)c3)N1C2=O [Example 6.128, (5′S,7a′R)-5′-(3-fluorophenyl)-1-(5-methyl-1,3-oxazole-4-carbonyl)tetrahydro-3′H-spiro[piperidine-4,2′-pyrrolo[2,1-b] [1,3]oxazol]-3′-one] |
| < 25 | O=C(c1cccc(N2CCCC2=O)c1)N1CCC2(CC1)O[C@@H]1CC[C@@H](c3cc(F)cc(F)c3)N1C2=O [Example 6.56, (5′S,7a′R)-5′-(3,5-difluorophenyl)-1-[3-(2-oxopyrrolidin-1-yl)benzene-1-carbon-yl]tetrahydro-3′H-spiro[piperidine-4,2′-pyrrolo[2,1-b][1,3]-oxazol]-3′-one] |
| 66.7 | O=C(c1ccc(Br)cn1)N1CCC2(CC1)O[C@@H]1CC[C@@H](c3cc(F)cc(F)c3)N1C2=O [Example 6.100, (5′S,7a′R)-1-(5-bromo-pyridine-2-carbonyl)-5′-(3,5-difluorophen-yl)tetrahydro-3′H-spiro[piperidine-4,2′-pyrrolo[2,1-b][1,3]-oxazol]-3′-one] |
